Measured values from patent US20230183239A1, “ECTONUCLEOTIDE PYROPHOSPHATASE-PHOSPHODIESTERASE 1 (ENPP-1) INHIBITORS AND USES THEREOF” (AbbVie Inc., priority 2017, published 2023).

How the values were obtained:
Format in all cases: biochemical
ENPP1 [1] = molecular target: T1, ENPP1 (Homo sapiens, UniProt P22413); experiment: ENPP1 enzyme assay with AMP-pNP substrate (hydrolysis of ATP analog); details: AMP-pNP substrate (ATP analog); Ki from IC50 by Cheng-Prusoff; read-out: ENPP1 Inhibition _AMP-pNP: Ki
T1 sequence (P22413 1-925): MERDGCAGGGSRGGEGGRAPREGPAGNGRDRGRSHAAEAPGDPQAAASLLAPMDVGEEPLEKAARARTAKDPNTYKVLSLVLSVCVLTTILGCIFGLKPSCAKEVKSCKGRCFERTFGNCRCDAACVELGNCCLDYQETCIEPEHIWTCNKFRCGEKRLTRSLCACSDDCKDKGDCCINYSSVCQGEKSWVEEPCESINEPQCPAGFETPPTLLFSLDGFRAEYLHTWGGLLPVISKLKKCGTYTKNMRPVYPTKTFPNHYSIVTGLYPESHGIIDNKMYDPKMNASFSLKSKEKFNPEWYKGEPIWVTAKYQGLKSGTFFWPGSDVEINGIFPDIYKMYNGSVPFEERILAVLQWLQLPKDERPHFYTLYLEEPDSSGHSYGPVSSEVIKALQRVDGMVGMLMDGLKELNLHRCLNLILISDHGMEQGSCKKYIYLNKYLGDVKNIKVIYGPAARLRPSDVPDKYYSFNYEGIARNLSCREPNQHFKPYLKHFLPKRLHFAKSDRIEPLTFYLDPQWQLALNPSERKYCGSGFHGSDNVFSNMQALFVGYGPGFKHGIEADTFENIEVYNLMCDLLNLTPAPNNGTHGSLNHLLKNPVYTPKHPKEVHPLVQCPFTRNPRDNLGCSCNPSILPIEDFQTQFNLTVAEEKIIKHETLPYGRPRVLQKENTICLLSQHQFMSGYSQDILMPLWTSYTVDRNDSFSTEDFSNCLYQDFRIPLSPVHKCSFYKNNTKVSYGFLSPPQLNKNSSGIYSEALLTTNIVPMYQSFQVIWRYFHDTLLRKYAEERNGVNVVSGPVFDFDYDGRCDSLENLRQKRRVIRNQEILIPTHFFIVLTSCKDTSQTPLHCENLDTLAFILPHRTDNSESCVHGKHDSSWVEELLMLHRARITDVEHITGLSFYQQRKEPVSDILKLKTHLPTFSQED
In short: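 Reactions ran 20 min at 37 °C, pH 8.5 Tris buffer with NaCl, CaCl2, ZnCl2, using 300 µM AMP-pNP and 60 ng/well recombinant human ENPP1; inhibitor range 10 µM–30 pM, duplicates.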

ENPP1 [2] = molecular target: T1, ENPP1; experiment: Substrate selectivity ratio, inhibition of cGAMP hydrolysis versus ATP hydrolysis; details: ratio Ki AMP-pNP / Ki cGAMP
Description: The selectivity ratios for inhibition of cGAMP hydrolysis versus ATP hydrolysis were then calculated as follows: […]

ENPP1 [3] = molecular target: T1, ENPP1; experiment: Indirect quantitation of 2',3'-cGAMP hydrolysis (AMP-Glo Assay kit); details: cGAMP substrate; Ki from IC50 by Cheng-Prusoff; read-out: ENPP1 Inhibition -cGAMP: Ki

COc1ccc2c(Oc3ccc(NS(N)(=O)=O)cc3F)ccnc2c1 [Example 71, N-(3-fluoro-4-((7-methoxyquinolin-4-yl)oxy)phenyl)sulfamide]
Ki (ENPP1 [1]): < 100 nM | Substrate Selectivity: Ki_AMP-pNP/Ki_cGAMP (ENPP1 [2]): 13.3 | Ki (ENPP1 [3]): < 100 nM

Cn1c(=O)[nH]c2ncnc(N3CCC(CCNS(N)(=O)=O)CC3)c21 [Example 141, N-(2-(1-(7-methyl-8-oxo-8,9-dihydro-7H-purin-6-yl)piperidin-4-yl)ethyl)sulfamide]
Ki (ENPP1 [1]): > 1000 nM | Substrate Selectivity: Ki_AMP-pNP/Ki_cGAMP (ENPP1 [2]): >929 | Ki (ENPP1 [3]): < 100 nM

COc1cc2ncc(F)c(-c3ccc4c(c3)CN(S(N)(=O)=O)CC4)c2cc1OC [Example 229, 7-(3-fluoro-6,7-dimethoxyquinolin-4-yl)-3,4-dihydroisoquinoline-2(1H)-sulfonamide]
Ki (ENPP1 [1]): < 100 nM | Substrate Selectivity: Ki_AMP-pNP/Ki_cGAMP (ENPP1 [2]): 27.2 | Ki (ENPP1 [3]): < 100 nM

NS(=O)(=O)N1CCC2(CCN(c3ncnc4cc(F)ccc34)CC2)C1 [Example 250, 8-(7-fluoroquinazolin-4-yl)-2,8-diazaspiro [4.5] decane-2-sulfonamide]
Ki (ENPP1 [1]): > 1000 nM | Substrate Selectivity: Ki_AMP-pNP/Ki_cGAMP (ENPP1 [2]): > 89.3 | Ki (ENPP1 [3]): < 100 nM

NS(=O)(=O)Nc1ccc(Nc2ncnc3ncccc23)cc1 [Example 242, N-(4-(pyrido[2,3-d]pyrimidin-4-ylamino)phenyl)sulfamide]
Ki (ENPP1 [1]): > 1000 nM | Substrate Selectivity: Ki_AMP-pNP/Ki_cGAMP (ENPP1 [2]): >82.4 | Ki (ENPP1 [3]): 100 to 1000 nM

COc1cc2nccc(N3CCc4cc(NS(N)(=O)=O)ccc43)c2cc1OC [Example 281, N-(1-(6,7-dimethoxyquinolin-4-yl)indolin-5-yl)sulfamide]
Ki (ENPP1 [1]): 100 to 1000 nM | Substrate Selectivity: Ki_AMP-pNP/Ki_cGAMP (ENPP1 [2]): 30.7 | Ki (ENPP1 [3]): < 100 nM

COc1nc2ncnc(N3CCC(CCNS(N)(=O)=O)CC3)c2n1C [Example 218, N-(2-(1-(8-methoxy-7-methyl-7H-purin-6-yl)piperidin-4-yl)ethyl)sulfamide]
Ki (ENPP1 [1]): > 1000 nM | Substrate Selectivity: Ki_AMP-pNP/Ki_cGAMP (ENPP1 [2]): >42.9 | Ki (ENPP1 [3]): 100 to 1000 nM

COc1cc2nccc(N3CCC4(CC3)CCN(S(N)(=O)=O)C4)c2cc1OC [Example 160, 8-(6,7-dimethoxyquinolin-4-yl)-2,8-diazaspiro[4.5]decane-2-sulfonamide]
Ki (ENPP1 [1]): < 100 nM | Substrate Selectivity: Ki_AMP-pNP/Ki_cGAMP (ENPP1 [2]): 13.9 | Ki (ENPP1 [3]): < 100 nM

COc1ccc2c(Oc3ccc(NS(N)(=O)=O)cc3)cc(C)nc2c1 [Example 397, N-(4-((7-methoxy-2-methylquinolin-4-yl)oxy)phenyl)sulfamide]
Ki (ENPP1 [1]): 100 to 1000 nM | Substrate Selectivity: Ki_AMP-pNP/Ki_cGAMP (ENPP1 [2]): >13 | Ki (ENPP1 [3]): < 100 nM

COc1ccc2c(-c3ccc(CNS(N)(=O)=O)nc3)ccnc2c1 [Example 354, N-((5-(7-methoxyquinolin-4-yl)pyridin-2-yl)methyl)sulfamide]
Ki (ENPP1 [1]): 100 to 1000 nM | Substrate Selectivity: Ki_AMP-pNP/Ki_cGAMP (ENPP1 [2]): 54 | Ki (ENPP1 [3]): < 100 nM

COc1ccc2c(-c3ccc(CNS(N)(=O)=O)c(F)c3)ccnc2c1 [Example 62, N-(2-fluoro-4-(7-methoxyquinolin-4-yl)benzyl)sulfamide]
Ki (ENPP1 [1]): < 100 nM | Substrate Selectivity: Ki_AMP-pNP/Ki_cGAMP (ENPP1 [2]): 16.1 | Ki (ENPP1 [3]): < 100 nM

COc1ccc2c(-c3ccc4c(c3)CN(S(N)(=O)=O)CC4)ccnc2n1 [Example 365, 7-(7-methoxy-1,8-naphthyridin-4-yl)-3,4-dihydroisoquinoline-2(1H)-sulfonamide]
Ki (ENPP1 [1]): 100 to 1000 nM | Substrate Selectivity: Ki_AMP-pNP/Ki_cGAMP (ENPP1 [2]): 18 | Ki (ENPP1 [3]): < 100 nM

NS(=O)(=O)N1CCc2ccc(-c3ccnc4cc(F)ccc34)cc2C1 [Example 311, 7-(7-fluoroquinolin-4-yl)-3,4-dihydroisoquinoline-2(1H)-sulfonamide]
Ki (ENPP1 [1]): > 1000 nM | Substrate Selectivity: Ki_AMP-pNP/Ki_cGAMP (ENPP1 [2]): >133 | Ki (ENPP1 [3]): < 100 nM

COc1cc2ncc(C)c(-c3ccc4c(c3)CN(S(N)(=O)=O)CC4)c2cc1OC [Example 60, 7-(6,7-dimethoxy-3-methylquinolin-4-yl)-3,4-dihydroisoquinoline-2(1H)-sulfonamide]
Ki (ENPP1 [1]): < 100 nM | Substrate Selectivity: Ki_AMP-pNP/Ki_cGAMP (ENPP1 [2]): 16.7 | Ki (ENPP1 [3]): < 100 nM

COc1cc2ncnc(NCc3ccc(S(N)(=O)=O)cc3)c2cc1OC [Example 182, 4-(((6,7-dimethoxyquinazolin-4-yl)amino)methyl)benzene sulfonamide]
Ki (ENPP1 [1]): 100 to 1000 nM | Substrate Selectivity: Ki_AMP-pNP/Ki_cGAMP (ENPP1 [2]): 24.7 | Ki (ENPP1 [3]): < 100 nM

COc1ccc2ncc(C#N)c(N3CCC4(CC3)CCN(S(N)(=O)=O)C4)c2c1 [Example 238, 8-(3-cyano-6-methoxyquinolin-4-yl)-2,8-diazaspiro[4.5]decane-2-sulfonamide]
Ki (ENPP1 [1]): 100 to 1000 nM | Substrate Selectivity: Ki_AMP-pNP/Ki_cGAMP (ENPP1 [2]): >99.7 | Ki (ENPP1 [3]): < 100 nM

N#Cc1cnc2cc(OC(F)F)ccc2c1-c1ccc2c(c1)CN(S(N)(=O)=O)CC2 [Example 262, 7-(3-cyano-7-(difluoromethoxy)quinolin-4-yl)-3,4-dihydroisoquinoline-2(1H)-sulfonamide]
Ki (ENPP1 [1]): > 1000 nM | Substrate Selectivity: Ki_AMP-pNP/Ki_cGAMP (ENPP1 [2]): >173 | Ki (ENPP1 [3]): 100 to 1000 nM

COc1ccc2ncc(C#N)c(-c3ccc(CN(C4CC4)S(N)(=O)=O)cc3)c2c1 [Example 294, N-(4-(3-cyano-6-methoxyquinolin-4-yl)benzyl)-N-cyclopropylsulfamide]
Ki (ENPP1 [1]): > 1000 nM | Substrate Selectivity: Ki_AMP-pNP/Ki_cGAMP (ENPP1 [2]): >119 | Ki (ENPP1 [3]): 100 to 1000 nM

COc1cc2nccc(Oc3c(F)cc(NS(N)(=O)=O)cc3F)c2cc1OC [Example 197, N-(4-((6,7-dimethoxyquinolin-4-yl)oxy)-3,5-difluorophenyl)sulfamide]
Ki (ENPP1 [1]): > 1000 nM | Substrate Selectivity: Ki_AMP-pNP/Ki_cGAMP (ENPP1 [2]): >49.7 | Ki (ENPP1 [3]): < 100 nM

COc1ccc2c(-c3ccc(CNS(N)(=O)=O)c(C)c3)ccnc2c1 [Example 374, N-(4-(7-methoxyquinolin-4-yl)-2-methylbenzyl) sulfamide]
Ki (ENPP1 [1]): > 1000 nM | Substrate Selectivity: Ki_AMP-pNP/Ki_cGAMP (ENPP1 [2]): >138 | Ki (ENPP1 [3]): < 100 nM

COc1ccc2c(-c3ccc(CNS(N)(=O)=O)cc3)ccnc2n1 [Example 63, N-(4-(7-methoxy-1,8-naphthyridin-4-yl)benzyl)sulfamide]
Ki (ENPP1 [1]): < 100 nM | Substrate Selectivity: Ki_AMP-pNP/Ki_cGAMP (ENPP1 [2]): 28.0 | Ki (ENPP1 [3]): < 100 nM

COc1cc2nccc(N3CCC(CN(C4CC4)S(N)(=O)=O)CC3)c2cc1OC [Example 212, N-cyclopropyl-N-((1-(6,7-dimethoxyquinolin-4-yl)piperidin-4-yl)methyl)sulfamide]
Ki (ENPP1 [1]): > 1000 nM | Substrate Selectivity: Ki_AMP-pNP/Ki_cGAMP (ENPP1 [2]): > 46.1 | Ki (ENPP1 [3]): < 100 nM

COc1ccc2c(-c3ccc4c(c3)CN(S(N)(=O)=O)CC4)c(C)cnc2c1 [Example 371, 7-(7-methoxy-3-methylquinolin-4-yl)-3,4-dihydroisoquinoline-2(1H)-sulfonamide]
Ki (ENPP1 [1]): > 1000 nM | Substrate Selectivity: Ki_AMP-pNP/Ki_cGAMP (ENPP1 [2]): >32 | Ki (ENPP1 [3]): < 100 nM

COc1ccc2c(-n3cc(Cl)c4cc(NS(N)(=O)=O)ccc43)ccnc2c1 [Example 413, N-(3-chloro-1-(7-methoxyquinolin-4-yl)-1H-indol-5-yl)sulfamide]
Ki (ENPP1 [1]): > 1000 nM | Substrate Selectivity: Ki_AMP-pNP/Ki_cGAMP (ENPP1 [2]): >153 | Ki (ENPP1 [3]): 100 to 1000 nM

COc1ccc2c(-c3ccc(CNS(N)(=O)=O)cc3)c(C(F)(F)F)cnc2c1 [Example 386, N-(4-(7-methoxy-3-(trifluoromethyl)quinolin-4-yl)benzyl) sulfamide]
Ki (ENPP1 [1]): 100 to 1000 nM | Substrate Selectivity: Ki_AMP-pNP/Ki_cGAMP (ENPP1 [2]): 39 | Ki (ENPP1 [3]): < 100 nM

COc1cc2ncnc(N3CCC(CCNS(=O)(=O)C(F)F)CC3)c2cc1OC [Example 208, N-(2-(1-(6,7-dimethoxyquinazolin-4-yl)piperidin-4-yl)ethyl)-1,1-difluoromethanesulfonamide]
Ki (ENPP1 [1]): > 1000 nM | Substrate Selectivity: Ki_AMP-pNP/Ki_cGAMP (ENPP1 [2]): > 16.4 | Ki (ENPP1 [3]): < 100 nM

COc1ccc2c(NC(C)c3ccc(NS(N)(=O)=O)cc3)ncnc2c1 (stereo not drawn) [Example 279, N-(4-(1-((7-methoxyquinazolin-4-yl)amino)ethyl)phenyl)sulfamide]
Ki (ENPP1 [1]): 100 to 1000 nM | Substrate Selectivity: Ki_AMP-pNP/Ki_cGAMP (ENPP1 [2]): 24.2 | Ki (ENPP1 [3]): < 100 nM

COc1cc2ncnc(Oc3ccc(NS(N)(=O)=O)cc3)c2cc1OC [Example 273, N-(4-((6,7-dimethoxyquinazolin-4-yl)oxy)phenyl)sulfamide]
Ki (ENPP1 [1]): > 1000 nM | Substrate Selectivity: Ki_AMP-pNP/Ki_cGAMP (ENPP1 [2]): >12.4 | Ki (ENPP1 [3]): 100 to 1000 nM
